Key:
[1] = target: T1, Full length wild-type cereblon CRBN (Homo sapiens, UniProt Q96SW2); assay: Fluorescence polarization (FP) assay indicating cereblon binding; conditions: bound stated; read-out: IC50 value
T1 construct: Full length wild-type cereblon CRBN (80.0 nM, 10 μL) was incubated in assay buffer
Outline: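 Full-length wild-type CRBN at 80.0 nM was preincubated 30 min at room temperature with compound (12-point curve, 300–0.937 or 3000–9.3 nM) in 20 mM HEPES pH 8.0, 150 NaCl, 0.5 mM TCEP, 0.05% Tween 20. Cy5-type thalidomide-based probe added at 5 nM final; FP read after 12 h (ex 590/em 675 nm), normalized to DMSO, IC50 fitted.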

[2] = target: GSPT1 (Homo sapiens, UniProt P15170+Q96SW2); assay: GSPT1 degradation immunofluorescence assay in CAL-51 cells; assay type: cell-based; design: endogenous in cells; host or cells: CAL-51 (DSMZ ACC302); conditions: 6 hours, Table 4, read-out: Activity for GSPT1 degradation, Code (DC50)
Outline: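 CAL-51 cells on fibronectin treated 6 h with compound (typically 30 μM to 0.1 nM), then fixed, permeabilised and immunostained for GSPT1, with phalloidin and DAPI. High-content imaging gave mean GSPT1 intensity per segmented cell. DC50 from non-linear regression after normalisation to DMSO and CC-885 (10 μM) controls.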

GSPT1, sequence (P15170 whole entry): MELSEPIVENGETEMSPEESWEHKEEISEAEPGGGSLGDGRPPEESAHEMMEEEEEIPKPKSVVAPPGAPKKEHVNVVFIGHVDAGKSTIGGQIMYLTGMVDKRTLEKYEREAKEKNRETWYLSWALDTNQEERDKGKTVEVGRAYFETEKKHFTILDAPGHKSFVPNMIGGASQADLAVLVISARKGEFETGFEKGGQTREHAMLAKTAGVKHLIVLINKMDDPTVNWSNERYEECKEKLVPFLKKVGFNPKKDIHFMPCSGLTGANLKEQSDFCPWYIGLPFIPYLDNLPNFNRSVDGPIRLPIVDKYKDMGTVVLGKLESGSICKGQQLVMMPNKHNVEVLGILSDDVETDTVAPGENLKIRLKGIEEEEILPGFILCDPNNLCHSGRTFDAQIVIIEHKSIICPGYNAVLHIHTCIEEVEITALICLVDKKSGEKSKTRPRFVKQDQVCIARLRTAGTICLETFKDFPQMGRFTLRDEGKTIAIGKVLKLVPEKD
GSPT1, sequence (Q96SW2 whole entry): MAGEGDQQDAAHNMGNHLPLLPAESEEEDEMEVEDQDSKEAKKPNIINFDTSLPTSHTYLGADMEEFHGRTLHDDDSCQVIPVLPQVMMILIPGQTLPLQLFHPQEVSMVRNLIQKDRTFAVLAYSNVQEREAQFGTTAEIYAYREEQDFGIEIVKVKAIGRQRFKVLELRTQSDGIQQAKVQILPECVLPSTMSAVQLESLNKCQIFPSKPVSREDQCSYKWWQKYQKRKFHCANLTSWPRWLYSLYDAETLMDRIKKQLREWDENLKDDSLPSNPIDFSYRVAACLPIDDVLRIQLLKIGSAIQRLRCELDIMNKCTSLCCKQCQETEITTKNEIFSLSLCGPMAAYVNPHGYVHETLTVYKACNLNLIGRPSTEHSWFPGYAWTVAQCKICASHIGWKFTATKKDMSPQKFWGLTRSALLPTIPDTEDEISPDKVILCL
GSPT1, sequence (Q16531 whole entry partner): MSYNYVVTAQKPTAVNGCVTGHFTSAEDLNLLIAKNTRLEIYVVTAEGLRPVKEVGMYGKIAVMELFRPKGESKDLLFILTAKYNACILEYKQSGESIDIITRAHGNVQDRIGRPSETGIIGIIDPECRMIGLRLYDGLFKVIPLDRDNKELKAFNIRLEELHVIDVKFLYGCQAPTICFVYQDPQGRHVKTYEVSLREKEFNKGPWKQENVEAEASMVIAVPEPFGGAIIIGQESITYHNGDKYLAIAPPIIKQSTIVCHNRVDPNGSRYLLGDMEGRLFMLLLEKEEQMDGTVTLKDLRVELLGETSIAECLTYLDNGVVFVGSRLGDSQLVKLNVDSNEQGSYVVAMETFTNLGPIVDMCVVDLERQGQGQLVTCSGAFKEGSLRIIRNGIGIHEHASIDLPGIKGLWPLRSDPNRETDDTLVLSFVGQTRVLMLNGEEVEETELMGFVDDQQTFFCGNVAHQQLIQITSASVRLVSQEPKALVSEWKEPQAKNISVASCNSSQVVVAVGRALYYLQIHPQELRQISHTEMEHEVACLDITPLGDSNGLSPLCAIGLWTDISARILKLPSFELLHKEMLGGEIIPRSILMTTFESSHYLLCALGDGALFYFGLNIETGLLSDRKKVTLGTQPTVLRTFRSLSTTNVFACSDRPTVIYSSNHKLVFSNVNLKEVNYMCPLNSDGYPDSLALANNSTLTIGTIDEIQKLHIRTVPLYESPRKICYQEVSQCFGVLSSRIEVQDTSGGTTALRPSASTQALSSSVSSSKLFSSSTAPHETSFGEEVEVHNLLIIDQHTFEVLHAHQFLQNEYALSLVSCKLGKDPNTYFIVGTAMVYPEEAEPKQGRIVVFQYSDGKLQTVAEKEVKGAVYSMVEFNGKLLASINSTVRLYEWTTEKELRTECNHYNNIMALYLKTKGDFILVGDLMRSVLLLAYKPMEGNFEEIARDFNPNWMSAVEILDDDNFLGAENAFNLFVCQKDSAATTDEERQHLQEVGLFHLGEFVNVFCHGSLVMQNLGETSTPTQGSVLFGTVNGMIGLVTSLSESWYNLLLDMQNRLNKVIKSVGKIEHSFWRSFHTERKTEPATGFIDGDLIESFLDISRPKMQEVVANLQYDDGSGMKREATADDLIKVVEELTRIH
T1 sequence (Q96SW2 whole entry): as the sequence (Q96SW2 whole entry) above

| Compound | IC50 [1] | DC50 [2] |
| --- | --- | --- |
| Cc1ccc(NC(=O)NCc2ccc3c(c2)C(=O)N(C2CCC(=O)NC2=O)C3)cc1Cl (stereo not shown) [Compound 8] | < 1100 nM | ≤ 100 nM |
| Cc1c(Cl)cc(NC(=O)NCc2ccc3c(c2)C(=O)N(C2CCC(=O)NC2=O)C3)cc1CN1C2CCC1COC2 (stereo not shown) [Compound 138] | < 1100 nM | ≤ 100 nM |

From US20240261274A1, “TREATMENT OF MYC-DRIVEN CANCERS WITH GSPT1 DEGRADERS” (MONTE ROSA THERAPEUTICS, INC., priority 2021, published 2024)
